Test results from ChEMBL document CHEMBL5150045, “Structure-Guided Design of Halofuginone Derivatives as ATP-Aided Inhibitors Against Bacterial Prolyl-tRNA Synthetase” (J Med Chem, 2022).
pIC50: −log10 of the molar value. Converted amounts (≈) assume the structure as drawn.

Columns and labels:
[1] = Inhibition of methicillin-resistant Staphylococcus aureus ProRS expressed in Escherichia coli assessed as generation of inorganic monophosphate by pre-transfer editing-based experiment
Staphylococcus aureus [2] = experiment: Inhibition of methicillin-resistant Staphylococcus aureus ProRS expressed in Escherichia coli assessed as change in melting temperature in presence of AMPPNP at 0.5 mM by fluorescence-based thermal shift assay
Homo sapiens = species: Homo sapiens; experiment: Inhibition of human ProRS expressed in Escherichia coli assessed as change in melting temperature in presence of AMPPNP at 0.5 mM by fluorescence-based thermal shift assay
Escherichia coli [3] = experiment: Antibacterial activity against Escherichia coli ATCC25922 assessed as prevention of visible growth by broth microdilution method; type: functional
Shigella flexneri = experiment: Antibacterial activity against Shigella flexneri CMCC51572 assessed as prevention of visible growth by broth microdilution method; type: functional
Salmonella typhi = experiment: Antibacterial activity against Salmonella typhi CMCC50094 assessed as prevention of visible growth by broth microdilution method; type: functional, Salmonella enterica subsp. enterica serovar Typhi; conditions: Salmonella enterica
Staphylococcus aureus [4] = experiment: Antibacterial activity against methicillin-resistant Staphylococcus aureus 252 assessed as prevention of visible growth by broth microdilution method; type: functional
Staphylococcus aureus [5] = experiment: Antibacterial activity against methicillin-resistant Staphylococcus aureus R3708 assessed as prevention of visible growth by broth microdilution method; type: functional
Staphylococcus aureus [6] = experiment: Antibacterial activity against Staphylococcus aureus ATCC29213 assessed as prevention of visible growth by broth microdilution method; type: functional
Staphylococcus aureus [7] = experiment: Antibacterial activity against Staphylococcus aureus ATCC25923 assessed as prevention of visible growth by broth microdilution method; type: functional
Staphylococcus aureus [8] = experiment: Bactericidal activity against methicillin-resistant Staphylococcus aureus 252 assessed as bacterial killing measured after 24 hrs incubation by CLSI method; type: functional; conditions: read-out: MBC99.9
Staphylococcus aureus [9] = experiment: Ratio of MBC99.9 for methicillin-resistant Staphylococcus aureus 252 to MIC for methicillin-resistant Staphylococcus aureus 252; type: functional
Escherichia coli [10] = experiment: Ratio of MBC99.9 for Escherichia coli ATCC25922 to MIC for Escherichia coli ATCC25922; type: functional
Staphylococcus aureus [11] = experiment: Resistance development in methicillin-resistant Staphylococcus aureus 252 assessed as fold increase in resistance after 15 days serial passage upto 256 ug/ml; type: functional; conditions: dose <= 256 µg/ml; time 15 day

| Structure (SMILES) | pIC50 [1] | ΔTm (Staphylococcus aureus [2]) [°C] | ΔTm (Homo sapiens) [°C] | MIC (Escherichia coli [3]) [µg/mL] | MIC (Shigella flexneri) [µg/mL] | MIC (Salmonella typhi) [µg/mL] | MIC (Staphylococcus aureus [4]) [µg/mL] | MIC (Staphylococcus aureus [5]) [µg/mL] | MIC (Staphylococcus aureus [6]) [µg/mL] | MIC (Staphylococcus aureus [7]) [µg/mL] | MBC (Staphylococcus aureus [8]) [µg/mL] | Ratio (Staphylococcus aureus [9]) | Ratio (Escherichia coli [10]) | fold change (FC) (Staphylococcus aureus [11]) |
| --- | --- | --- | --- | --- | --- | --- | --- | --- | --- | --- | --- | --- | --- | --- |
| O=C(C[C@@H]1CCCCN1)Cn1cnc2cc(Cl)c(Cl)cc2c1=O | 6.29 | 7.9 | 18.9 | 16 (≈ 45.2 µM) | 16 (≈ 45.2 µM) | 32 (≈ 90.3 µM) | 4 (≈ 11.3 µM) | 4 (≈ 11.3 µM) | 8 (≈ 22.6 µM) | 16 (≈ 45.2 µM) | 64 (≈ 181 µM) | 16 |  |  |
| O=C(C[C@@H]1CCCCN1)Cn1cnc2cc(F)c(F)cc2c1=O | 6.20 | 7.3 | 19.2 | 4 (≈ 12.4 µM) | 4 (≈ 12.4 µM) | 16 (≈ 49.8 µM) | 16 (≈ 49.8 µM) | 32 (≈ 99.6 µM) | 16 (≈ 49.8 µM) | 32 (≈ 99.6 µM) | 128 (≈ 398 µM) | 8 | 16 |  |
| O=c1c2cc(Cl)c(Br)cc2ncn1CCC[C@@H]1CCCCN1 | 4.91 | 2.5 | 15.1 | 64 (≈ 166 µM) | 64 (≈ 166 µM) | 64 (≈ 166 µM) | 64 (≈ 166 µM) | 64 (≈ 166 µM) | 32 (≈ 83.2 µM) | 64 (≈ 166 µM) |  |  |  |  |
| O=c1c2cc(Cl)c(Cl)cc2ncn1CCC[C@@H]1CCCCN1 | 5.17 | 2 | 12.4 | > 64 | > 64 | > 64 | > 64 | > 64 | > 64 | > 64 |  |  |  |  |
| COc1cc2ncn(CC(=O)C[C@@H]3CCCCN3)c(=O)c2cc1OC | < 4.00 | 0 | 4.2 | > 64 | > 64 | > 64 | > 64 | > 64 | > 64 | > 64 |  |  |  |  |
| C[C@H]1COc2c(N3CCN(C)CC3)c(F)cc3c(=O)c(C(=O)O)cn1c23.C[C@H]1COc2c(N3CCN(C)CC3)c(F)cc3c(=O)c(C(=O)O)cn1c23.O [LEVOFLOXACIN] |  |  |  |  |  |  |  |  |  |  |  |  |  | 64 |
